Results: US20110166123A1, “NOVEL COMPOSITIONS AND METHODS OF USE” (priority 2008, published 2011)
Values joined by “and” are separate entries in the source; they are usually repeats but may differ in a detail not shown here. Equal entries are not always repeated. Marks after values point to notes of the source that are not given here.

Key:
[1] = Microsomal incubation (Method 1), human; assay type: in vitro ADME; conditions: human liver microsomes, compound 10 μM, 1 mg protein/mL, NADPH 1 mM, 60 minutes at 37° C.
Experimental: (§1) Compound (10 μM) was incubated with rat, dog, cynomolgus monkey, and human liver microsomes (1 mg protein/mL) in a final volume of 1 mL in 2-mL Eppendorf tubes. The mixture containing enzymes, potassium phosphate buffer (100 mM, pH 7.4), and the compound was pre-incubated at 37° C. for 3 min. The reaction was initiated by the addition of NADPH (final concentration of 1 mM) and incubated for 60 minutes at 37° C. The reaction was terminated by the addition of 1 mL of acetonitrile. After centrifugation at 12000 rpm for 3 minutes, the supernatant was subjected to 15 minutes of concentration (N2 flow, 32° C.). The resulting final extract was transferred to clean vials and analyzed by HPLC.

[2] = Microsomal incubation (Method 1), dog; assay type: in vitro ADME; conditions: dog liver microsomes; compound 10 μM, 1 mg protein/mL, NADPH 1 mM, 60 minutes at 37° C.
Experimental: as §1

[3] = Microsomal incubation (Method 1), monkey; assay type: in vitro ADME; conditions: cynomolgus monkey liver microsomes; compound 10 μM, 1 mg protein/mL, NADPH 1 mM, 60 minutes at 37° C.
Experimental: as §1

[4] = Microsomal incubation (Method 1), rat; assay type: in vitro ADME; conditions: rat liver microsomes; compound 10 μM, 1 mg protein/mL, NADPH 1 mM, 60 minutes at 37° C.
Experimental: as §1

[5] = Hepatocyte stability (Example 36), rat; conditions: rat hepatocytes 1 million cells/mL, 37° C., 4 hours, LC-MS/MS
[6] = Hepatocyte stability (Example 36), human; conditions: human hepatocytes 1 million cells/mL, 37° C., 4 hours, LC-MS/MS
[7] = Hepatocytes incubation (Method 1), human; assay type: in vitro ADME; conditions: compound 10 μM, 37° C., 2 hrs
Experimental: (§2) Cryopreserved hepatocytes were thawed in a water bath at 37° C. and transferred to a 50-mL tube containing 45 mL of pre-warmed incubation medium (In VitroGRO HT medium). The tube was inverted 3 times to ensure resuspension of hepatocytes and centrifuged at 50 g at room temperature for 5 minutes. The supernatant was decanted without disturbing the pellet. The pellet of hepatocytes was resuspended in 1 mL of William's E medium and the viable cell counting was determined by the tryptan blue exclusion method.
(§3) The William's E medium was added to the suspension of the hepatocytes pellet to make a final density of 2 million cells/mL. Stock solution of the compound was prepared at the concentration of 1 mM and diluted to 10 μM with William's E medium. The culture plate was incubated at 37° C. under 5% carbon dioxide and 95% air atmosphere for 2 hrs. The metabolic reaction was terminated by transferring the contents of the well into a centrifuge tube containing 1 mL of 0.1% TFAA acetonitrile solution and then vortexing. After centrifugation, the supernatant was subjected to 15 minute of concentration (N2 flow, 32° C.). The resulted final extract was transferred to clean vials for HPLC analysis.

[8] = Hepatocytes incubation (Method 1), monkey; assay type: in vitro ADME; conditions: compound 10 μM, 37° C., 2 hrs
Experimental: as §2, §3

[9] = Hepatocytes incubation (Method 1), rat; assay type: in vitro ADME; conditions: compound 10 μM, 37° C., 2 hrs
Experimental: as §2, §3

[10] = system: human immunodeficiency virus type 1 (HIV-1); test: microbe, parasite or virus in culture; assay type: cell-based; conditions: Human immunodeficiency virus 1, HeLa, 48 h, HIV-1 luciferase reporter, HeLa cells, 48 hours after infection
[11] = CYP3A4 activity 3800 (pmol/mg protein)

In the case of `COc1cc2c(cc1Cc1cccc(Cl)c1F)c(=O)c(C(=O)O)cn2[C@H](CO)C(C)C` [Example 30A, reference compound], the “% Remaining, Human, Microsome” value [1, 11] is reported as 40.5 (3800)* NA %, the “% Remaining, Dog, Microsome” value [2] is reported as 83.8 NA % and the “% Remaining, Monkey, Microsome” value [3] is reported as 4.1 NA %. For the same compound, the “% Remaining, Rat, Microsome” value [4] was 6.7 NA %, the “% Remaining (rat)” value [5] was 29% and the “% Remaining (human)” value [6] was 54%.

With `Cc1nnc(C(=O)NC(C)(C)c2nc(C(=O)NCc3ccc(F)cc3)c(O)c(=O)n2C)o1` [Raltegravir, raltegravir, reference compound] the “% Remaining, Dog, Microsome” value [2] was 91.8%, the “% Remaining, Monkey, Microsome” value [3] was 94.7% and the “% Remaining, Rat, Microsome” value [4] was 105%. The “% Remaining, Human, Hepatocyte” value [7] was 32.4%, the “% Remaining, Monkey, Hepatocyte” value [8] was 20.0% and the “% Remaining, Rat, Hepatocyte” value [9] was 43.3%.

With `COc1nc2c(cc1NCc1c(F)cc(F)cc1F)c(=O)c(C(=O)O)cn2[C@H](CO)C(C)(C)C` [Example 20NN, (S)-1-(1-hydroxy-3,3-dimethylbutan-2-yl)-7-methoxy-4-oxo-6-(2,4,6-trifluorobenzylamino)-1,4-dihydro-1,8-naphthyridine-3-carboxylic acid] the EC50 [10] was < 10 nM, the “% Remaining (rat)” value [5] was 46% and the “% Remaining (human)” value [6] was 61%.

For `COc1nc2c(cc1Cc1cccc(Cl)c1F)c(=O)c(C(=O)O)cn2[C@H](CO)C(C)C` [Example 1A, 6-(3-Chloro-2-fluoro-benzyl)-1-((S)-1-hydroxymethyl-2-methyl-propyl)-7-methoxy-4-oxo-1,4-dihydro-[1,8]naphthyridine-3-carboxylic acid], the EC50 [10] was < 10 nM, the “% Remaining, Human, Microsome” value [1, 11] was 101% and 96.1% and the “% Remaining, Human, Microsome” value ([1]; CYP3A4 activity 7800 (pmol/mg protein)) was 83.5%. The “% Remaining, Dog, Microsome” value [2] was 102%, the “% Remaining, Monkey, Microsome” value [3] was 66.3% and the “% Remaining, Rat, Microsome” value [4] was 38.1%. For the same compound, the “% Remaining, Human, Hepatocyte” value [7] was 89.6%, the “% Remaining, Monkey, Hepatocyte” value [8] was 72.3% and the “% Remaining, Rat, Hepatocyte” value [9] was 66.9%.

With `COc1nc2c(cc1NCc1c(F)cc(F)cc1F)c(=O)c(C(=O)O)cn2[C@H](CO)C(C)C` [Example 20AA, (S)-1-(1-hydroxy-3-methylbutan-2-yl)-7-methoxy-4-oxo-6-(2,4,6-trifluorobenzylamino)-1,4-dihydro-1,8-naphthyridine-3-carboxylic acid] the EC50 [10] was < 10 nM, the “% Remaining (rat)” value [5] was 43% and the “% Remaining (human)” value [6] was 75%.

In the case of `CC(C)[C@@H](CO)n1cc(C(=O)O)c(=O)c2cc(Cc3cccc(Cl)c3)ncc21` [Example 5C, 6-(3-Chloro-benzyl)-1-((S)-1-hydroxymethyl-2-methyl-propyl)-4-oxo-1,4-dihydro-[1,7]naphthyridine-3-carboxylic acid], the EC50 [10] is reported as > 100 nM.

For `CC(C)[C@@H](CO)n1cc(C(=O)O)c(=O)c2cc(Cc3cccc(Cl)c3F)ncc21` [Example 5A, 6-(3-Chloro-2-fluoro-benzyl)-1-((S)-1-hydroxymethyl-2-methyl-propyl)-4-oxo-1,4-dihydro-[1,7]naphthyridine-3-carboxylic acid], the EC50 [10] was 10 to 100 nM.

In the case of `CC(C)(C)[C@@H](CO)n1cc(C(=O)O)c(=O)c2cc(Cc3cccc(Cl)c3F)c(N3CCC(O)CC3)nc21` [Example 2X], the EC50 [10] is reported as 10 to 100 nM.

For `COc1nc2c(cc1Cc1ccc(F)c(F)c1)c(=O)c(C(=O)O)cn2[C@H](CO)C(C)C` [Example 1B], the EC50 [10] was > 100 nM.

In the case of `CC(C)[C@@H](CO)n1cc(C(=O)O)c(=O)c2cc(Cc3ccc(F)c(F)c3)ncc21` [Example 5B, 6-(3,4-Difluoro-benzyl)-1-((S)-1-hydroxymethyl-2-methyl-propyl)-4-oxo-1,4-dihydro-[1,7]naphthyridine-3-carboxylic acid], the EC50 [10] is reported as > 100 nM.

For `CC(C)[C@@H](CO)n1cc(C(=O)O)c(=O)c2cc(NCc3ccc(F)cc3)ccc21` [Example 22A, (S)-6-(4-fluorobenzylamino)-1-(1-hydroxy-3-methylbutan-2-yl)-4-oxo-1,4-dihydroquinoline-3-carboxylic acid], the EC50 [10] was > 100 nM.

For `COc1nc2c(cc1NCc1ccc(F)c(F)c1F)c(=O)c(C(=O)O)cn2[C@H](CO)C(C)C` [Example 20EE, (S)-1-(1-hydroxy-3-methylbutan-2-yl)-7-methoxy-4-oxo-6-(2,3,4-trifluorobenzylamino)-1,4-dihydro-1,8-naphthyridine-3-carboxylic acid], the EC50 [10] was > 100 nM.

With `COc1nc2c(cc1-c1cccc3ccccc13)c(=O)c(C(=O)O)cn2[C@H](CO)C(C)C` [Example 17I] the EC50 [10] was > 100 nM.
